From US20050106305A1, “Beverage compositions comprising monatin and methods of making same” (Cargill, Inc., priority 2003, published 2005)

Key:
[1] = Time intensity profile in a soft drink system; assay type: in vivo; conditions: 80 ppm monatin, 10.0% sucrose, 200 ppm sucralose, pH 3.2 model soft drink
Experimental: Solutions of 80 ppm monatin (racemic mix of monatin described in Example 14), 10.0% (w/v) sucrose and 200 ppm sucralose were prepared in the pH 3.2 model soft drink system described in Example 14. The time intensity profile of these solutions then was assessed using the following procedure. Six panelists were included in the study. These panelists were screened for their general sensory acuity and selected for their sensitivity to sweetness intensity and sweetness quality differences. All were experienced in methods of sweetener assessment and had received special training in time intensity evaluations. Training sessions were carried out initially to familiarize the panel with the method of evaluation and scoring the samples over time using a computerized data entry system.
Samples of each solution (13 mL) were coded and presented individually to panelists, in random order. For each panelist, immediately after swallowing, the computer recorded timed intensity readings on the scale of 0-100 each second, up to 60 seconds. Each solution was evaluated in duplicate.

[2] = Sensory stability of monatin in water; assay type: physicochemical
Experimental: The sensory stability of monatin (racemic mix described in Example 14) in water (8% SEV) was studied after storage at room temperature for 0 to 6 hours. The SEV was monitored (as described above in Example 14) at either 0-1 hours or 5-6 hours after preparing a monatin solution.

## NC(CC(O)(Cc1c[nH]c2ccccc12)C(=O)O)C(=O)O (racemic) [Monatin, 2-hydroxy-2-(indol-3-ylmethyl)-4-aminoglutaric acid]
[1]
  Area Under Curve: 117.3 unit × s
  Rate of Decline: 2.2 unit/s
  Rate of Onset: 14.9 unit/s
  Time for Sweetness to Decline to Half Maximum Value: 34.2 s
  Time to Half Maximum Sweetness: 2.4 s
  Time to Maximum Sweetness: 9.0 s
[1]; scale 0-100
  Intensity of Maximum Sweetness: 66.6 unit
[2]; 8% SEV, after 6 hours in room temperature
  loss of monatin SEV: no detectable loss
[2]; room temperature, 0 to 6 hours
  lactonization (LC/MS): no lactonization
